# Results from patent publication US3994882A, “Nitrofuran derivatives, process for the preparation thereof and compositions containing same as active ingredient” (Kabushiki Kaisha Ueno Seiyaku Oyo Kenkyujo, priority 1974, dated 1976).
# Columns and labels:
# [1] = test system: microorganisms; conditions: compound (A), background; cited from earlier work
# [2] = test system: Streptococcus hemolyticus, Staphylococcus aureus, Escherichia coli and salmonella species; conditions: cited from earlier work
# [3] = in vivo; cited from earlier work
# [4] = test system: Streptococcus hemolyticus A 089; test: Curative action in infected mice (Table 4); format: in vivo; conditions: Streptococcus pyogenes, A089, 168 h, mice infected abdominally, oral in 5% gum arabic, observation one week
# Protocol: (§1) Next, in Table 4 are shown the curative actions (ED50 mg/Kg body wt.) and acute toxicities (LD50 mg/kg body wt.) of the typical nitrofuran derivatives of the present invention when used with infected mice.
# (§2) Note.- The numerical values in the table denote the amounts per unit body
# (§3) weight of the nitrofuran derivatives required for cure when the experimen
# (§4) was carried out using mice of body weight of about 20 grams and injecting
# (§5) thereinto abdominally the microorganism-containing solutions in amounts o
# (§6) 0.2 ml (the microorganism-containing solutions used being those in the
# (§7) cases of test microorganisms 1, 3 and 4 in which the microorganism cultur
# (§8) liquids were diluted 10^5, 5 and 10^2 times, respectively, and in
# (§9) the case of test microorganism 2 that which was concentrated 2 times),
# (§10) after which the nitrofuran derivatives suspended in 5% gum arabic were
# (§11) forcedly administered orally followed by observation for one week.
# [5] = test system: Staphylococcus aureus 72r; test: Curative action in infected mice (Table 4); format: in vivo; conditions: 168 h, mice infected abdominally, oral in 5% gum arabic, observation one week
# Protocol: as §1, §2, §3, §4, §5, §6, §7, §8, §9, §10, §11
# [6] = test system: Escherichia coli K-74; test: Curative action in infected mice (Table 4); format: in vivo; conditions: K74, 168 h, mice infected abdominally, oral in 5% gum arabic, observation one week
# Protocol: as §1, §2, §3, §4, §5, §6, §7, §8, §9, §10, §11
# [7] = test system: Salmonella typhimium K-52; test: Curative action in infected mice (Table 4); format: in vivo; conditions: K52, 168 h, mice infected abdominally, oral in 5% gum arabic, observation one week
# Protocol: as §1, §2, §3, §4, §5, §6, §7, §8, §9, §10, §11
# [8] = test system: infected mice; test: Curative action in infected mice; format: in vivo; conditions: oral
# Protocol: as §2, §3, §4, §5, §6, §7, §8, §9, §10, §11
# [9] = Acute toxicity in mice (Table 4); conditions: mouse, in vivo, po
# Protocol: as §1
# [10] = test system: Salmonella pullorum chuyu 114; test: Minimum growth inhibiting concentration (Table 1); format: cell-based; conditions: Salmonella enterica, TSBI, pH 7.2, 37° C., 48 hours
# Protocol: (§12) For information, the minimum growth inhibiting concentration is a value
# (§13) concerning microorganisms cultivated in TSBI the pH of which was adjusted
# (§14) to 7.2, each bacteria being incubated at 37° C. for 48 hours.
# [11] = test system: Streptococcus hemolyticus A 089; test: Minimum growth inhibiting concentration (Table 1); format: cell-based; conditions: Streptococcus pyogenes, A089, TSBI, pH 7.2, 37° C., 48 hours
# Protocol: as §12, §13, §14
# [12] = test system: Escherichia coli O-55; test: Minimum growth inhibiting concentration (Table 1); format: cell-based; conditions: O55, TSBI, pH 7.2, 37° C., 48 hours
# Protocol: as §12, §13, §14
# [13] = test system: Staphylococcus aureus 209P; test: Minimum growth inhibiting concentration (Table 1); format: cell-based; conditions: TSBI, pH 7.2, 37° C., 48 hours
# Protocol: as §12, §13, §14
# [14] = test system: Pseudomonas aeruguinosa 347; test: Minimum growth inhibiting concentration (Table 1); format: cell-based; conditions: TSBI, pH 7.2, 37° C., 48 hours
# Protocol: as §12, §13, §14
# [15] = test system: Klebsiella pneumoniae ST-101; test: Minimum growth inhibiting concentration (Table 1); format: cell-based; conditions: ST101, TSBI, pH 7.2, 37° C., 48 hours
# Protocol: as §12, §13, §14
# [16] = test system: Bacillus Subtilis PCI219; test: Minimum growth inhibiting concentration (Table 1); format: cell-based; conditions: TSBI, pH 7.2, 37° C., 48 hours
# Protocol: as §12, §13, §14
# [17] = test system: Proteus vulgaris HX-19; test: Minimum growth inhibiting concentration (Table 1); format: cell-based; conditions: HX19, TSBI, pH 7.2, 37° C., 48 hours
# Protocol: as §12, §13, §14
# [18] = test system: Salmonella enteritidis 1891; test: Minimum growth inhibiting concentration (Table 1); format: cell-based; conditions: Salmonella enterica, TSBI, pH 7.2, 37° C., 48 hours
# Protocol: as §12, §13, §14
# [19] = test system: Diplococcus pneumoniae DP-1; test: Minimum growth inhibiting concentration (Table 1); format: cell-based; conditions: Streptococcus pneumoniae, DP1, TSBI, pH 7.2, 37° C., 48 hours
# Protocol: as §12, §13, §14
compound,measurement,setting,value
"NC(=O)c1ccc(C=Cc2ccc([N+](=O)[O-])o2)cc1 [Compound A, Para-[2-(5'-nitro-2'-furyl)-vinyl]-benzoylamine, reference compound]",In vivo antimicrobial activity,[1],not observed
same,Antimicrobial activity in vitro (in words),[2],extremely superior antimicrobial activity in vitro
same,Concentration inhibiting the growth,"[2]; in vitro, Streptococcus hemolyticus, Staphylococcus aureus, Escherichia coli and salmonella species",0.1-3 micrograms per milliliter
same,Concentration in blood,[3],can scarcely be noted
same,ED50,[4],> 400 mg/kg
same,ED50,[5],> 400 mg/kg
same,ED50,[6],> 400 mg/kg
same,ED50,[7],> 400 mg/kg
same,Curative effect in infected mice (in words),[8],no curative effects were noted
same,LD50,[9],> 400 mg/kg
"O=C(NCCO)c1cccc(C=Cc2ccc([N+](=O)[O-])o2)c1 [Example 2, 2-Meta-[2'-(5""-nitro-2""-furyl)-vinyl]-benzoylamino-ethanol]",ED50,[4],34 mg/kg
same,ED50,[5],37 mg/kg
same,ED50,[6],45 mg/kg
same,ED50,[7],150 mg/kg
same,MIC,[10],3.13 µg/mL
same,MIC,[11],< 0.19 µg/mL
same,MIC,[12],3.13 µg/mL
same,MIC,[13],0.78 µg/mL
same,MIC,[14],25 µg/mL
same,MIC,[15],1.56 µg/mL
same,MIC,[16],< 0.19 µg/mL
same,MIC,[17],6.25 µg/mL
same,MIC,[18],0.78 µg/mL
same,MIC,[19],< 0.19 µg/mL
same,LD50,[9],2000 mg/kg
"O=C(NCCCO)c1ccc(C=Cc2ccc([N+](=O)[O-])o2)cc1 [Example 4, 3-Para-[2'-(5""-nitro-2""-furyl)-vinyl]-benzoylamino-1-propanol]",ED50,[4],24 mg/kg
same,ED50,[5],50 mg/kg
same,ED50,[7],125 mg/kg
same,MIC,[10],6.25 µg/mL
same,MIC,[11],< 0.19 µg/mL
same,MIC,[12],3.13 µg/mL
same,MIC,[13],0.78 µg/mL
same,MIC,[14],> 25 µg/mL
same,MIC,[15],3.13 µg/mL
same,MIC,[16],< 0.19 µg/mL
same,MIC,[17],6.25 µg/mL
same,MIC,[18],3.13 µg/mL
same,MIC,[19],6.25 µg/mL
same,LD50,[9],1900 mg/kg
"CC(O)CNC(=O)c1ccc(C=Cc2ccc([N+](=O)[O-])o2)cc1 (stereo not drawn) [Example 5, 3-Para[2'-(5""-nitro-2""-furyl)-vinyl]-benzoylamino-2-propanol]",ED50,[4],19 mg/kg
same,ED50,[5],37 mg/kg
same,ED50,[7],110 mg/kg
same,MIC,[10],6.25 µg/mL
same,MIC,[11],0.19 µg/mL
same,MIC,[12],6.25 µg/mL
same,MIC,[13],0.78 µg/mL
same,MIC,[14],> 25 µg/mL
same,MIC,[15],3.13 µg/mL
same,MIC,[16],< 0.19 µg/mL
same,MIC,[17],3.13 µg/mL
same,MIC,[18],1.56 µg/mL
same,MIC,[19],0.78 µg/mL
same,LD50,[9],1700 mg/kg
"O=C(NCCOCCO)c1ccc(C=Cc2ccc([N+](=O)[O-])o2)cc1 [Example 11, 2-Para-[2'-(5""-nitro-2""-furyl)-vinyl]-benzoylaminoethoxy-2-ethanol]",ED50,[4],13 mg/kg
same,ED50,[5],21 mg/kg
same,ED50,[6],29 mg/kg
same,ED50,[7],100 mg/kg
same,MIC,[10],6.25 µg/mL
same,MIC,[11],< 0.19 µg/mL
same,MIC,[12],6.25 µg/mL
same,MIC,[13],1.56 µg/mL
same,MIC,[14],25 µg/mL
same,MIC,[15],3.13 µg/mL
same,MIC,[16],< 0.19 µg/mL
same,MIC,[17],6.25 µg/mL
same,MIC,[18],1.56 µg/mL
same,MIC,[19],0.78 µg/mL
same,LD50,[9],1850 mg/kg
"NC(=O)CNC(=O)c1ccc(C=Cc2ccc([N+](=O)[O-])o2)cc1 [Example 16, Para-[2-(5'-nitro-2'-furyl)-vinyl]-N-benzoylglycine amide]",ED50,[4],34 mg/kg
same,ED50,[5],30 mg/kg
same,ED50,[6],34 mg/kg
same,ED50,[7],110 mg/kg
same,MIC,[10],3.13 µg/mL
same,MIC,[11],< 0.19 µg/mL
same,MIC,[12],3.13 µg/mL
same,MIC,[13],0.78 µg/mL
same,MIC,[14],> 25 µg/mL
same,MIC,[15],3.13 µg/mL
same,MIC,[16],< 0.19 µg/mL
same,MIC,[17],3.13 µg/mL
same,MIC,[18],0.78 µg/mL
same,MIC,[19],0.39 µg/mL
same,LD50,[9],2000 mg/kg
"NC(=O)C(CO)NC(=O)c1ccc(C=Cc2ccc([N+](=O)[O-])o2)cc1 (stereo not drawn) [Example 19, Para-[2-(5'-nitro-2'-furyl)-vinyl]-N-benzoylserine amide]",ED50,[4],46 mg/kg
same,ED50,[5],65 mg/kg
same,MIC,[10],6.25 µg/mL
same,MIC,[11],< 0.19 µg/mL
same,MIC,[12],12.5 µg/mL
same,MIC,[13],1.56 µg/mL
same,MIC,[14],25 µg/mL
same,MIC,[15],6.25 µg/mL
same,MIC,[16],< 0.19 µg/mL
same,MIC,[17],6.25 µg/mL
same,MIC,[18],1.56 µg/mL
same,MIC,[19],0.78 µg/mL
same,LD50,[9],> 2000 mg/kg
